Experimental data reported in US9561245B2, “Combination treatments for melanoma” (priority 2012, dated 2017).
Where two headings read alike, the source gives them in different places.

Legend:
[1] = test system: M481, M487 and M610 melanoma cells carrying BRAF V600E mutations; type: in vivo, NSG mice
Experimental: M481, M487 and M610 melanoma cells carrying BRAF V600E mutations were implanted in s.c. tissue on right flanks of NSG mice. When tumors became palpable, mice were randomized to four different treatments. […] Control mice received vehicle only (200 μl 0.5% promethylcellulose, 0.2% Tween80 and 5% DMSO per day). Tumors were measured every 2-3 days with calipers.
In these experiments metastatic melanoma cells were injected subcutaneously in the right flanks of immunocompromised NSG mice. When tumors became palpable, mice were randomized to four different treatments. […] Control mice received vehicle only (200 μl 0.5% promethylcellulose, 0.2% Tween80 and 5% DMSO per day). Tumors were measured every 2-3 days with calipers.

[2] = test system: M481 metastatic melanoma cells; assay: M481 melanoma xenograft tumor growth in NSG mice (i.p. agents, PLX 4720 chow); type: in vivo
Experimental: M481 metastatic melanoma cells were implanted in s.c. tissue on right flanks of NSG mice. […] For PLX4720 treatment mice were switched to either a chow diet containing 417 mg/kg PLX4720 or the control chow containing no compound. Tumors were measured every 2-3 day with calipers. Mean±SD is reported (* P<0.05, *** P<0.0005, ns: not significant; two-tailed Student's t test). FIG. 1B, Representative bioluminescence images of melanomas at day 14.
M481 metastatic melanoma cells were implanted in s.c. tissue on right flanks of NSG mice. When tumors became palpable mice were i.p. injected with RO 31-8220 (3 mg/kg) or DMSO. […] Tumors were measured every 2-3 day with calipers. […]
M481 metastatic melanoma cells were implanted in s.c. tissue on right flanks of NSG mice. […] Tumors were measured every 2-3 day with calipers. […]
Transplanting melanoma cells. After sorting, cells were counted and resuspended in staining medium (L15 medium containing 1 mg/ml BSA, 1% penicillin/streptomycin and 10 mM HEPES [pH7.4]) with 25% high protein Matrigel (product 354248; BD Biosciences). […]
Bioluminescence imaging (BLI). Mice were injected with 100 luciferase-GFP+ cells on the right flank and monitored until tumor diameters approached 20 mm, at which point they were imaged along with an uninjected control mouse on an IVIS Imaging System 200 Series (Calliper Life Sciences) using Living Image software. […]

PKGα = details: cited from earlier work
MSK1 = MSK1 (Homo sapiens, UniProt O75582); details: cited from earlier work
MSK1, sequence (O75582 whole entry, species assumed): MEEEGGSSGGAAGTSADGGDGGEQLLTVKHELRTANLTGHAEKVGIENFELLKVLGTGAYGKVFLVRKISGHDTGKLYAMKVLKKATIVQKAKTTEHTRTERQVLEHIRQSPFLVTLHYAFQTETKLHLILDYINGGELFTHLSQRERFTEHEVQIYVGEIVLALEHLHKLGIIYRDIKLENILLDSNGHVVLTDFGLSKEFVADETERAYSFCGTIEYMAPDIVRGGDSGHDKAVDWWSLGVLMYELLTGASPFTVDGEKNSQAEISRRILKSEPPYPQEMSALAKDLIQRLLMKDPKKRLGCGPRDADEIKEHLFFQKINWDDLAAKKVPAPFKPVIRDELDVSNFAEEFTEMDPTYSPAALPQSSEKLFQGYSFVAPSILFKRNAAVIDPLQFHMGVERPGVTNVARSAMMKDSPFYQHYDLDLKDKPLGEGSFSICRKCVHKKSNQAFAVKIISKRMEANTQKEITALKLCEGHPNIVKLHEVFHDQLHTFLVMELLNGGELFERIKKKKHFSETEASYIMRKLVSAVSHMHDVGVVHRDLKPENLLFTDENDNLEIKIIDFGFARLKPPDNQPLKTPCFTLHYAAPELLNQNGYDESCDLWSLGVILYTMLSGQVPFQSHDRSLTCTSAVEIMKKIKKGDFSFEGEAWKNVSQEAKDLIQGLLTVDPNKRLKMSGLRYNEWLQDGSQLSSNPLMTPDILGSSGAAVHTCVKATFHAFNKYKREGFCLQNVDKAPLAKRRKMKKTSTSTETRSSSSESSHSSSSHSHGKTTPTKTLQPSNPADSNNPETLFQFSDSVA

JNK = details: rat adipocytes and L6 myotubes; cited from earlier work
glycogen synthase = details: rat adipocytes and L6 myotubes; cited from earlier work
MAPK = details: rat adipocytes and L6 myotubes; cited from earlier work
ERK2 = details: rat adipocytes and L6 myotubes; cited from earlier work

CCCS(=O)(=O)Nc1ccc(F)c(C(=O)c2c[nH]c3ncc(Cl)cc23)c1F [PLX 4720]
growth of human melanoma xenografts ([1]; PLX4720 20 mg/kg/day by oral gavage alone): slowed the growth

Cn1cc(C2=C(c3cn(CCCSC(=N)N)c4ccccc34)C(=O)NC2=O)c2ccccc21 [RO 31-8220]
in vivo tumor growth ([2]; RO 31-8220 3 mg/kg i.p. alone): inhibited the growth of a melanoma as well as the BRAF inhibitor (PLX 4720) | IC50 (PKGα): 33 nM | IC50 (MSK1): 8 nM | effect on JNK (JNK): Activates | effect on glycogen synthase (glycogen synthase): Activates | effect on MAPK (MAPK): inhibits | effect on ERK2 (ERK2): inhibits

C[C@H]1O[C@@H](O[C@H]2[C@@H](O)C[C@H](O[C@H]3[C@@H](O)C[C@H](O[C@H]4CC[C@@]5(C)[C@H](CC[C@@H]6[C@@H]5CC[C@]5(C)[C@@H](C7=CC(=O)OC7)CC[C@]65O)C4)O[C@@H]3C)O[C@@H]2C)C[C@H](O)[C@@H]1O [digitoxin]
in vivo tumor growth ([2]; digitoxin 0.5 mg/kg i.p. alone, s.c. xenograft, calipers every 2-3 day): inhibited the growth of a melanoma better than BRAF inhibitor (PLX 4720) | growth of human melanoma xenografts ([1]; digitoxin 0.5 mg/kg/day by oral gavage alone): slowed the growth
